Results on one molecule are retold here after PMC12006963, “Application of Deuterium in an M1 Positive Allosteric Modulator Back-Up Program: The Discovery of VU6045422” (ACS Chemical Neuroscience, 2025).

For data set [1], the system named is CYP. The experiment in a line: CYP induction. The data set is classed as in vitro ADME. To be noted: in words.
Data set [2] deals with Interleukin IL-1 R1 (Homo sapiens, UniProt P14778). The data set is described as follows: Eurofins radioligand binding.
Data set [3] addresses GABAB1A (Homo sapiens, UniProt Q9UBS5). The data set is described as follows: Eurofins radioligand binding.
Data set [4] deals with Muscarinic M1 (Homo sapiens, UniProt P11229). The data set is described as follows: Eurofins radioligand binding.
Data set [5] concerns the target bile salt export pump (BSEP) (Homo sapiens, UniProt O95342). The experiment in a line: Bile salt export pump inhibition. In kind it is in vitro ADME.
The test system of data set [6] is Glutamate, NMDA, Phencyclidine. The experiment in a line: Eurofins radioligand binding. On the set-up: species or system Rat.
For data set [7], the target named is CYP 3A4 (Homo sapiens, UniProt P08684). The data set is described as follows: CYP isoform contribution to metabolism: 3A4. The data set is classed as in vitro ADME.
Data set [8] concerns GABAA, Flunitrazepam, Central. The experiment in a line: Eurofins radioligand binding. Details: species or system Rat.
Data set [9] deals with Estrogen ERα (Homo sapiens, UniProt P03372). The experiment in a line: Eurofins radioligand binding.
Data set [10] deals with Dopamine D2S (Homo sapiens, UniProt P14416). The data set is described as follows: Eurofins radioligand binding.
Data set [11] in a line: Rat oral dose escalation PK study. The data set is classed as in vivo. To be noted: for AUC(0-t) / Cmax: Sprague-Dawley, plasma, rat, oral. The method, then: page 9: Brain plasma concentration ratio (Kp) was calculated by dividing brain concentration by plasma concentration for each animal. Unbound brain to unbound plasma concentration ratio (Kp,uu) is calculated using the following formula: Kp,uu = (Brain ng/g x brain fu)/(plasma ng/ml x plasma fu). Pharmacokinetic profiles in rats following oral single escalating doses Single escalating oral dosing in Sprague-Dawley rats was performed at Frontage Laboratories according to their non-GLP Standard Operating Procedure and IACUC protocols. […] At different times, arterial blood was collected from a femoral artery catheter, and compound concentration was determined in plasma by LC-MS/MS following their non-GLP protocol. PK parameters were determined using Phoenix WinNonlin software (version 6.3). In-vitro determination of blood-brain barrier penetration potential Blood-brain barrier penetration was determined using MDR1-MDCK cell monolayers by Absorption Systems, following their protocol. In short, compounds were incubated at […] final concentration on one side of the cell monolayer for 2 hours. Compounds concentration on either side of the monolayer was determined by LC-MS/MS and apparent permeability and efflux ratio were determined as described in Wang, Q. et al.1 Behavioral Manifestations of Seizure Activity To evaluate induction of behavioral manifestation of seizure activity, C57Bl/6 mice received administration of vehicle or 100 mg/kg M1 PAM 5. Compound was formulated in 30% Captisol (pH 7.0) at a concentration of 10 mg/mL and injected i.p. at 10 ml/kg (n = 4). Animals were monitored continuously and scored for behavioral manifestations of seizure activity at 5, 15, 30 min, and 1 h. Behavioral manifestations of seizures were scored using a modified Racine scoring system. Briefly, a score of 0 represents no behavior alterations; score 1, immobility, mouth and facial movements, or facial clonus; score 2, head nodding, tail extension; score 3, forelimb clonus, repetitive movements; score 4, rearing and tonic clonic seizure; and score 5, continuous rearing and falling, severe generalized tonic clonic seizure. Novel Object Recognition Task S9

The test system of data set [12] is 68 GPCRs, ion channels, and transporters. The data set is described as follows: Eurofins lead profiling screen, whole panel. In kind it is binding. The following applies: 10 μM; significant means >50%.
The test system of data set [13] is Calcium Channel L-Type, Benzothiazepine. The experiment in a line: Eurofins radioligand binding. Details: species or system Rat.
Data set [14] has as its target Adrenergic α1B (Homo sapiens, UniProt P35368). The experiment in a line: Eurofins radioligand binding.
In data set [15] the target is Adrenergic α1D (Homo sapiens, UniProt P25100). The data set is described as follows: Eurofins radioligand binding.
Adrenergic α1D, sequence (P25100 whole entry): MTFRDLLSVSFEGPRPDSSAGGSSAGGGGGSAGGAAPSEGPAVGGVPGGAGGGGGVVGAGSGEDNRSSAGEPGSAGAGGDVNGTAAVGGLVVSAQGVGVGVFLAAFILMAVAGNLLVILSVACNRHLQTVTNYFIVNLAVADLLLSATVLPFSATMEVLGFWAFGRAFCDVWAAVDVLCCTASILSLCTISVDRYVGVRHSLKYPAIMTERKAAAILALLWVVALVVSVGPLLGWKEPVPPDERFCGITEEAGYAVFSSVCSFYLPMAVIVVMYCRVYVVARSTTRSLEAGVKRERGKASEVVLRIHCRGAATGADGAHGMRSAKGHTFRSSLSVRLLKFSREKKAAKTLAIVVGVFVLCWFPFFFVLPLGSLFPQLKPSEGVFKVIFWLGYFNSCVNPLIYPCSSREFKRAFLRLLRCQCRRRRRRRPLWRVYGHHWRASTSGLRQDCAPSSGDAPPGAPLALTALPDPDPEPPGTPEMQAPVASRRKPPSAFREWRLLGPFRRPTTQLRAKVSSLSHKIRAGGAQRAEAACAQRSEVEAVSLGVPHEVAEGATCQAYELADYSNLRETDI

Muscarinic M1, sequence (P11229 whole entry): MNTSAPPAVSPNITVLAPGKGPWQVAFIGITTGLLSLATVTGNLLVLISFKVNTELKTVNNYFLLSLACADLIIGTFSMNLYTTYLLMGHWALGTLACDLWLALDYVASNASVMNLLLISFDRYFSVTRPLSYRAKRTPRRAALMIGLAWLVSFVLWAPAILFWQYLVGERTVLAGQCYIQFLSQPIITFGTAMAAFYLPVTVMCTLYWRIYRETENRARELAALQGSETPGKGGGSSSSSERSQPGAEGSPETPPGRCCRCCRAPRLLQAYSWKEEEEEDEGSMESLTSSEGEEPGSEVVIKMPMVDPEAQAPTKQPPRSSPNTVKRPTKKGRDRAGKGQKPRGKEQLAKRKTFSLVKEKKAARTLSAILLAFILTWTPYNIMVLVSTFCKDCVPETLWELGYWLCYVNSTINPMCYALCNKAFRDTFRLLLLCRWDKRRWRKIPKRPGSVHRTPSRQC
Dopamine D2S, sequence (P14416 1-414 isoform P14416-2): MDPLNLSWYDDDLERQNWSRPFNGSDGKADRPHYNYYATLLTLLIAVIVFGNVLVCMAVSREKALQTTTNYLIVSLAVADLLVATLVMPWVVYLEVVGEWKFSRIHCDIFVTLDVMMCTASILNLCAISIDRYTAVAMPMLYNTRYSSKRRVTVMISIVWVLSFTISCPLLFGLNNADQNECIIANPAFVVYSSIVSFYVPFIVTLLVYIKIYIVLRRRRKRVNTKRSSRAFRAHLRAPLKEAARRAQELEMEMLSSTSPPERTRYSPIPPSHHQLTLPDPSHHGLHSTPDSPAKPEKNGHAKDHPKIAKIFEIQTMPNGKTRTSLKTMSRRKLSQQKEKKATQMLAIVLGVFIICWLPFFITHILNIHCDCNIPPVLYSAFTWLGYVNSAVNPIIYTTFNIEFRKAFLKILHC
Adrenergic α1B, sequence (P35368 whole entry): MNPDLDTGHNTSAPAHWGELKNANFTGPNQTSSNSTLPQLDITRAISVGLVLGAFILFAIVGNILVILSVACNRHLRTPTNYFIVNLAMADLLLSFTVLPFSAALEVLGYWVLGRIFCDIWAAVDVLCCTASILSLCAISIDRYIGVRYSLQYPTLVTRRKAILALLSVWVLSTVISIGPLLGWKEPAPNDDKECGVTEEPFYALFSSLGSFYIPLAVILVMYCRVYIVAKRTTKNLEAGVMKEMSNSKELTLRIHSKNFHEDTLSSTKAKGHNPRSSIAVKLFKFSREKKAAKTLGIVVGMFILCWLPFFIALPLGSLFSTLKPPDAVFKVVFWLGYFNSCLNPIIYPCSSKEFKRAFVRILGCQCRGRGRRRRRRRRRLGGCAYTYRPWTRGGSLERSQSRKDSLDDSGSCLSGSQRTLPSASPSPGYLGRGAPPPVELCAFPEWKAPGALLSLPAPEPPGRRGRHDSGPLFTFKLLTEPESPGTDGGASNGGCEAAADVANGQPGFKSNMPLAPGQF
Interleukin IL-1 R1, sequence (P14778 18-569): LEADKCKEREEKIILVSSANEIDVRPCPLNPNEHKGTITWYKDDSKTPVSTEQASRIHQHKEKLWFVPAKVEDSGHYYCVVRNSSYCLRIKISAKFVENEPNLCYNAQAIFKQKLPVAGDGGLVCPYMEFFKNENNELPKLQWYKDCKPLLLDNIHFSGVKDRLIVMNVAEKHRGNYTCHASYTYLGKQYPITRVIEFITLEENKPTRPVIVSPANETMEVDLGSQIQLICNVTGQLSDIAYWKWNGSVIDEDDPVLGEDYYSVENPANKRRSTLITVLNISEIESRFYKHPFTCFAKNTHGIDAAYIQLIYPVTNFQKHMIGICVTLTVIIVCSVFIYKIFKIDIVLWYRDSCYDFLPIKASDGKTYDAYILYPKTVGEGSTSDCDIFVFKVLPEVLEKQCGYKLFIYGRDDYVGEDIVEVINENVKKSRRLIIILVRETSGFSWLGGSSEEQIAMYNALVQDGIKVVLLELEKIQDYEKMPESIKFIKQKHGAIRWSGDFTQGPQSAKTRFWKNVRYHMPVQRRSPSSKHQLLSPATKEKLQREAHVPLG
Estrogen ERα, sequence (P03372 whole entry): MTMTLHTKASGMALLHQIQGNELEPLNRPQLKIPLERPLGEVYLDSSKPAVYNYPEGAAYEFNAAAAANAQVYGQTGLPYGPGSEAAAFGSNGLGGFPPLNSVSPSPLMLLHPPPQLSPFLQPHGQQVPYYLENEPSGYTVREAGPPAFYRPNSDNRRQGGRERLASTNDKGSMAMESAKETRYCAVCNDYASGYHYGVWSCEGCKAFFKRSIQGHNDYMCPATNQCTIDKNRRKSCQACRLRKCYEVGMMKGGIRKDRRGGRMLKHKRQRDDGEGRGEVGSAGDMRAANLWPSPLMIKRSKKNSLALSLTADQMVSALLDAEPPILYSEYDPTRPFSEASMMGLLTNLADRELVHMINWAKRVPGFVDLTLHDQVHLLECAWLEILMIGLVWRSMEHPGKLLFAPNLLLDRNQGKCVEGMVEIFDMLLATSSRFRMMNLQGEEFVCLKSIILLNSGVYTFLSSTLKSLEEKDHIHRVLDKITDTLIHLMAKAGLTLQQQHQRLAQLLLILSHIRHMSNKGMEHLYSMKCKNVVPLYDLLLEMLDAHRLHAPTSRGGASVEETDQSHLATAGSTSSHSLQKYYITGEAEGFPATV
GABAB1A, sequence (Q9UBS5 15-961 limits assumed): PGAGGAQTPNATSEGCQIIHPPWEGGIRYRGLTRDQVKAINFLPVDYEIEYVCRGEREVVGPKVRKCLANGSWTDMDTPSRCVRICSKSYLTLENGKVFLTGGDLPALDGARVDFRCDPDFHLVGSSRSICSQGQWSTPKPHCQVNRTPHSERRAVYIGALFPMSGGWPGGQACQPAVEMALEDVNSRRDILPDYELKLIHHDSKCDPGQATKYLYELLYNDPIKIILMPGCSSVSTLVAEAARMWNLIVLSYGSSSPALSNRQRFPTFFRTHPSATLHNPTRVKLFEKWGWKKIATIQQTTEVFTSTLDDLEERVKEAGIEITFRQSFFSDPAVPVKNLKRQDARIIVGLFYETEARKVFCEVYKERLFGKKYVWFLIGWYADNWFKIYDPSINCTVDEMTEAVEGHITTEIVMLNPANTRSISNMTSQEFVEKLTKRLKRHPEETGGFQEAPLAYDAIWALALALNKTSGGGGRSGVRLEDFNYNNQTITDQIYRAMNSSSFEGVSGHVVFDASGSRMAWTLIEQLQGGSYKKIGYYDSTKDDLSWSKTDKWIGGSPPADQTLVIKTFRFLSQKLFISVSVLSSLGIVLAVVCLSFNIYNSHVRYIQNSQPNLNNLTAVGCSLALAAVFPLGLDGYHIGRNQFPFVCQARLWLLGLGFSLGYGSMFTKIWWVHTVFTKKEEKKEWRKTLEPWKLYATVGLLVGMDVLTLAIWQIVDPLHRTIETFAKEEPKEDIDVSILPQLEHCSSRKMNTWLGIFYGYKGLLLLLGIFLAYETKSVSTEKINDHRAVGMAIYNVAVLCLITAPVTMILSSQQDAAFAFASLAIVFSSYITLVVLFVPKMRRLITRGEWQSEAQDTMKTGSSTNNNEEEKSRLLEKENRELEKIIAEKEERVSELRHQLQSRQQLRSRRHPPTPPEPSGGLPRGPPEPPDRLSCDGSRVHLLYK
GABAB1A, sequence (O75899 42-941 partner): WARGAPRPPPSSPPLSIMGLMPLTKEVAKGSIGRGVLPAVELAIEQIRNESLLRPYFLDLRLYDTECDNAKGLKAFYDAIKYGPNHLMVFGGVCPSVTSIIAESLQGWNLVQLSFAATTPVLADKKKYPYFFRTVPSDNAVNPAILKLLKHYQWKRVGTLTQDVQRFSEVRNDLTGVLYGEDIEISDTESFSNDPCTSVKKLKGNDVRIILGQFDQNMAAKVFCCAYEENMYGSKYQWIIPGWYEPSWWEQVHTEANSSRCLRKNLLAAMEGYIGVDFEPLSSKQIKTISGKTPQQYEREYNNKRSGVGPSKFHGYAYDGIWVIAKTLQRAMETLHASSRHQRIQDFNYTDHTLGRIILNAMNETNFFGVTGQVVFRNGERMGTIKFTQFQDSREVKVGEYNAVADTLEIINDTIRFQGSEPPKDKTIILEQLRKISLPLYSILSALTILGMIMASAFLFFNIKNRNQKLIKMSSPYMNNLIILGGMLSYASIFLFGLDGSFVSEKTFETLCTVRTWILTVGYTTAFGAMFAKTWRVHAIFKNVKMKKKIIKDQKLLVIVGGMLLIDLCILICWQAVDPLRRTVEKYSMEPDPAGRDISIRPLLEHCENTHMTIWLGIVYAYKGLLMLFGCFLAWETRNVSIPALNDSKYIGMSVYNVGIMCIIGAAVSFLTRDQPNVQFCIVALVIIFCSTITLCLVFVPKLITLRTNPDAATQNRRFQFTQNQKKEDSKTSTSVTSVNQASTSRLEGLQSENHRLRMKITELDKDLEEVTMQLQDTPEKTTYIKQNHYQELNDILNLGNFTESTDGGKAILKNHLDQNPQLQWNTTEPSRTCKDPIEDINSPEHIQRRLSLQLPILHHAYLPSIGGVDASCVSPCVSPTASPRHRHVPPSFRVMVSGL

Broadly, the inhibition is the change of the read-out against control, counted positive when it falls. As a reminder, the IC50 is the midpoint of a concentration-inhibition curve. The term % Inhibition denotes the drop in the measured response relative to a control, in per cent. The AUC(0-t) is the area under the concentration-time curve up to a stated or last time point. Higher therefore signals high exposure. In general, Cmax refers to the highest concentration seen after dosing. On to `[2H]C1([2H])c2ncccc2C(=O)N1Cc1c(F)cc(-c2cccc3nn(C([2H])([2H])[2H])cc23)cc1F` [compound 5], for which the CYP induction liability entry in data set [1] was “no time-dependent CYP inhibition or CYP induction liabilities”. For the same molecule, the inhibition at 10 µM in [2] is 8%; in data set [3] it was -5%; in data set [4], 0%; in data set [9], 10%; in data set [10] it was 2%; in [14] it was 10%. Further, the inhibition at 10 µM in data set [15] is -15%. The IC50 in data set [5] was 42.3 µM. In addition, the entries for the “% Inhibition at 10 µM” value in [6], in data set [8] and in data set [13] were -1%, 0% and 15%, respectively. Moreover, the “contribution of CYP 3A4 to metabolism” value in data set [7] is reported as 92.6%. Also, the AUC(0-t) stood at 8390 ng·h/mL in data set [11] (3 mg/kg), 23900 ng·h/mL in [11] (10 mg/kg), 55600 ng·h/mL in data set [11] (30 mg/kg) and 87800 ng·h/mL in [11] (100 mg/kg). The Cmax in [11] (3 mg/kg) was 1250 ng/mL; in [11] (10 mg/kg) it was 3380 ng/mL; in data set [11] (30 mg/kg), 6020 ng/mL; in data set [11] (100 mg/kg), 7850 ng/mL. In [11] (rat oral dose escalation 3-100 mg/kg), the “cholinergic signs or adverse events” value is given as “no cholinergic signs or adverse events were noted”. Moreover, in data set [12], the “activity in Eurofins lead profiling screen, whole panel” value is “no significant activity”.
